In ChEMBL document CHEMBL1133590, “Study on selectin blocker. 8. Lead discovery of a non-sugar antagonist using a 3D-pharmacophore model” (J Med Chem, 2000) one finds IC50 data, which are given here for five molecules.

A word on the IC50: it is the midpoint of a concentration-inhibition curve. A high value points to weaker potency in that assay.

The assay addresses T1, E-selectin (Mus musculus, UniProt Q00690).
T1 sequence (Q00690 whole entry): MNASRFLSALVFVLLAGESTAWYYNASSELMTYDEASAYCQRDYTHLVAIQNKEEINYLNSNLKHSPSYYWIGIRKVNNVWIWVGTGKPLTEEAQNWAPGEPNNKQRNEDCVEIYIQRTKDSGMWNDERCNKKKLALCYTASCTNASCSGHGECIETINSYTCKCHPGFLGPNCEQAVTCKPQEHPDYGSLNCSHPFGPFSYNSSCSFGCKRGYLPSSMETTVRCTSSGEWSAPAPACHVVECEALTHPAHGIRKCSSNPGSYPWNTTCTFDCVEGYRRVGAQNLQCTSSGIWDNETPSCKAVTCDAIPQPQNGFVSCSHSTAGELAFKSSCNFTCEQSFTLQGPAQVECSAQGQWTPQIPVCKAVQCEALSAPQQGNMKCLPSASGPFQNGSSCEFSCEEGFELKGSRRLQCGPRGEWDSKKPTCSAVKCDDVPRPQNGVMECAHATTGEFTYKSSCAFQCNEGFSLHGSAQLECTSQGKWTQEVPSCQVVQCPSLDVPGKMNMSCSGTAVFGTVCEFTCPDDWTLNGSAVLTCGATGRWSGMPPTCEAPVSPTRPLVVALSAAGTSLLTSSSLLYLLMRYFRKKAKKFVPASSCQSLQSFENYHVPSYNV
Nature of the assay: Evaluated for the inhibitory activity against Selectin E.
Take `CCCCCCCCCCCCCCCCCC(=O)Nc1ccc(C(=O)Nc2cc(C(=O)O)ccc2Oc2cccc(C(=O)O)c2)cc1`: inhibition was half-maximal at 86 µM (IC50). The molecule `CCCCCCCCCCCCCCC(CCCCCCCCCCCCCC)C(=O)N[C@@H](CO[C@@H]1OC(C)[C@@H](O)[C@H](O)C1O)C(=O)N[C@H](CCC(=O)O)C(=O)NC` (stereo not given in full) had an IC50 of 13 µM. With `CC(=O)N[C@H]1[C@H]([C@H](O)[C@H](O)CO)O[C@@](O[C@H]2[C@@H](O)[C@@H](CO)O[C@@H](O[C@@H]([C@H](O[C@@H]3O[C@@H](C)[C@@H](O)[C@@H](O)[C@@H]3O)[C@H](C=O)NC(C)=O)[C@H](O)CO)[C@@H]2O)(C(=O)O)C[C@@H]1O` [SIALYL LEWIS X] the figure was 580 µM; with `CCCCCCCCCCCCCCCCCC(=O)Nc1ccc(C(=O)Nc2cc(C(=O)O)ccc2Oc2cc(C(=O)O)cc(C(=O)O)c2)cc1`, more than 500 µM.

As to `CCCCCCCCCCCCCCCCCC(=O)Nc1ccc(C(=O)CC(=O)Nc2cc(C(=O)O)ccc2Oc2cc(C(=O)O)cc(C(=O)O)c2)cc1`, the IC50 came to 1200 µM.
